Patent US10522239B2, “Small molecule binding pockets in nucleic acids” (Nymirum, Inc., priority 2012, dated 2019)

Molecular target: pre-miR-122 loop
Experiment: NMR titration binding screen against pre-miR-122 loop
Parameters: species or system human
Conditions: NMR titration experiments
Excerpt: The apical loop sequence of human pre-miR 122 RNA sequence was investigated as an example. Two base pairs at the 5′- and 3′-ends of the sequence were modified from the native pre-miR 122 sequence in order to stabilize the 24-mer stem loop construct for NMR studies (5′-[…]-3′) (SEQ ID NO: 2).
Because pre-miR-122 is cleaved near the helix-apical loop interface, the apical loop was targeted to identify binding pockets. […] Given the size and plasticity of the loop, it was hypothesized that the loop could assume different conformations to bind small molecules. To identify small molecule binding pockets, each of the 60 small molecules in Nymirum's small molecule library was screened against the pre-miR-122 loop using NMR titration experiments. Two small molecules, NC1404 (9-aminoacridine) and NC1444 (L-arg-p-nitroanilide), were identified to bind with Kds of 71.7±9.0 μM and 17.6±3.25 μM respectively (FIGS. 12A and 12B). Using the same procedure detailed for A-site, bound-state chemical shifts for NC1404 and NC1444 were measured, used to solve a bound-state pre-miR-122 structure and a binding pocket for each compound was identified (FIGS. 12A and 12B). […]

Row | Kd | Structure (SMILES)
1 | 71.7 ± 9 µM | Nc1c2ccccc2nc2ccccc12 [NC1404, 9-aminoacridine]
2 | 17.6 ± 3.25 µM | N=C(N)NCCC[C@H](N)C(=O)Nc1ccc([N+](=O)[O-])cc1 [NC1444, L-arg-p-nitroanilide]
